Patent US6420120B1, “Use of a polypeptide as cell receptor for adenoviruses” (priority 1997, dated 2002)

Columns and labels:
Test in all cases: Bifunctional ligand: Ad5Luc3 attachment to peptide-pretreated cells, luciferase activity
Settings in all cases: 500 μM peptide, 1 h at 0-4° C. before Ad5Luc3
Swiss-3T3 cells = assay type: cell-based, murine
Procedure: (§1) The human cells (HeLa) or murine cells (Swiss-3T3 or NIH-3T3, ATCC CRL-1658) are rinsed and incubated between 0 and 4° C. with an isotonic solution (PBS) containing 500 μM of peptide. After 1 h, the solution is removed and replaced with the viral inoculum (Ad5Luc3) according to a protocol already described (see above or Hong et al., 1997, EMBO J. 16, 2294-2306). The virus is incubated for 1 hour between 0 and 4° C. to allow its attachment, and then the excess nonadsorbed virus is rinsed with culture medium precooled to 4° C. and the cells are again placed at 37° C. in the presence of culture medium preheated to 37° C. The virus is endocytosed at 37° C. and the viral cycle then lasts for 18 to 20 h at 37° C.

NIH-3T3 cells = assay type: cell-based, murine
Procedure: as §1

HeLa cells = assay type: cell-based, human
Procedure: as §1

| Substance | increase in the luciferase activity (number of adsorbed viruses) versus no peptide (Swiss-3T3 cells) | increase in the luciferase activity (number of adsorbed viruses) versus no peptide (NIH-3T3 cells) | increase in the luciferase activity (number of adsorbed viruses) versus no peptide (HeLa cells) |
| --- | --- | --- | --- |
| GRP-MH20: bifunctional peptide with reverse orientation, GRP at N-terminus and MH20 at C-terminus, SEQ ID No: 23 (KMYPRGNHWAVGHLMRAIVGFRVQWLRRYFVNGSR; listed as Homo sapiens) | two to three times | eight to ten times | five to six times |
| MH20-GRP: bifunctional peptide, MH20 at N-terminus fused to GRP (Gastrin Releasing Peptide), SEQ ID No: 22 (RAIVGFRVQWLRRYFVNGSRKMYPRGNHWAVGHLM; listed as Homo sapiens) | identical slope | identical slope | identical slope |
